Reference: ChEMBL document CHEMBL1201862, “PubChem BioAssay data set” (2004)
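Cultured in 96-well plates, cells were exposed to test compound for 48 hours across five concentrations. GI50 = concentration required for 50% inhibition of growth.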 Calls of active or inactive are those of the source. Rule as the data show it: active = GI50 up to about 1.1 µM and inactive = higher.

Columns and labels:
Assay in all cases: NCI-60 cell line screen, 48 h
786-0 = test system: 786-0
A549 = test system: A549
ACHN = test system: ACHN
BT-549 = test system: BT-549
CAKI-1 = test system: CAKI-1
CCRF-CEM = test system: CCRF-CEM
COLO 205 = test system: COLO 205
DU-145 = test system: DU-145
HCC 2998 = test system: HCC 2998
HCT-116 = test system: HCT-116
HCT-15 = test system: HCT-15
HL-60 = test system: HL-60
HOP-62 = test system: HOP-62
HT-29 = test system: HT-29
Hs-578T = test system: Hs-578T
IGROV-1 = test system: IGROV-1
K562 = test system: K562
KM12 = test system: KM12
LOX IMVI = test system: LOX IMVI
M14 = test system: M14
MCF7 = test system: MCF7
MDA-MB-231 = test system: MDA-MB-231
MDA-MB-435 = test system: MDA-MB-435
MDA-N = test system: MDA-N
MOLT-4 = test system: MOLT-4
Malme-3M = test system: Malme-3M
NCI-H226 = test system: NCI-H226
NCI-H23 = test system: NCI-H23
NCI-H460 = test system: NCI-H460
NCI-H522 = test system: NCI-H522
NCI/ADR-RES = test system: NCI/ADR-RES
OVCAR-3 = test system: OVCAR-3
OVCAR-4 = test system: OVCAR-4
OVCAR-5 = test system: OVCAR-5
OVCAR-8 = test system: OVCAR-8
PC-3 = test system: PC-3
RPMI-8226 = test system: RPMI-8226
RXF 393 = test system: RXF 393
SF-268 = test system: SF-268
SF-295 = test system: SF-295
SF-539 = test system: SF-539
SK-MEL-28 = test system: SK-MEL-28
SK-MEL-2 = test system: SK-MEL-2
SK-MEL-5 = test system: SK-MEL-5
SK-OV-3 = test system: SK-OV-3
SN12C = test system: SN12C
SNB-19 = test system: SNB-19
SNB-75 = test system: SNB-75
SR = test system: SR
SW-620 = test system: SW-620
T47D = test system: T47D
TK-10 = test system: TK-10
U-251 = test system: U-251
UACC-257 = test system: UACC-257
UACC-62 = test system: UACC-62
UO-31 = test system: UO-31
EKVX = test system: EKVX
HOP-92 = test system: HOP-92

With `COc1ccc(-c2c(C#N)c(S)n(NS(=O)(=O)c3ccccc3)c(=O)c2C#N)cc1` the GI50 (786-0) was 35.2 µM (inactive), the GI50 (A549) was 56.2 µM (inactive) and the GI50 (ACHN) was 55.7 µM (inactive). For the same compound, the GI50 (BT-549) was 14.3 µM (inactive), the GI50 (CAKI-1) was > 72.8 µM (inactive) and the GI50 (CCRF-CEM) was 24.3 µM (inactive). For the same compound, the GI50 (COLO 205) was 58.1 µM (inactive), the GI50 (DU-145) was > 100 µM (inactive) and the GI50 (HCC 2998) was > 100 µM (inactive). For the same compound, the GI50 (HCT-116) was 37.9 µM (inactive), the GI50 (HCT-15) was 40.6 µM and the GI50 (HL-60) was 47.1 µM (inactive). The GI50 (HOP-62) was > 100 µM (inactive), the GI50 (HT-29) was 45.6 µM (inactive) and the GI50 (Hs-578T) was 49 µM (inactive). For the same compound, the GI50 (IGROV-1) was 31.9 µM (inactive), the GI50 (K562) was 42.5 µM (inactive) and the GI50 (KM12) was 70.6 µM (inactive). For the same compound, the GI50 (LOX IMVI) was 35.9 µM (inactive), the GI50 (M14) was 58.6 µM (inactive) and the GI50 (MCF7) was 59.6 µM (inactive). The GI50 (MDA-MB-231) was 88.9 µM (inactive), the GI50 (MDA-MB-435) was 34.3 µM (inactive) and the GI50 (MDA-N) was 45.6 µM (inactive). For the same compound, the GI50 (MOLT-4) was 53.2 µM (inactive), the GI50 (Malme-3M) was > 96.6 µM (inactive) and the GI50 (NCI-H226) was > 100 µM (inactive). The GI50 (NCI-H23) was 75.2 µM (inactive), the GI50 (NCI-H460) was 48.5 µM (inactive) and the GI50 (NCI-H522) was 26.4 µM (inactive). The GI50 (NCI/ADR-RES) was 70.5 µM (inactive), the GI50 (OVCAR-3) was 87.9 µM (inactive) and the GI50 (OVCAR-4) was 46.6 µM (inactive). The GI50 (OVCAR-5) was > 100 µM (inactive), the GI50 (OVCAR-8) was 48.8 µM (inactive) and the GI50 (PC-3) was 37.7 µM (inactive). For the same compound, the GI50 (RPMI-8226) was 42.8 µM (inactive), the GI50 (RXF 393) was 37.8 µM (inactive) and the GI50 (SF-268) was 62.7 µM (inactive). The GI50 (SF-295) was 77.3 µM (inactive), the GI50 (SF-539) was 24.5 µM (inactive) and the GI50 (SK-MEL-28) was > 100 µM (inactive). The GI50 (SK-MEL-2) was 47 µM (inactive), the GI50 (SK-MEL-5) was 36.7 µM (inactive) and the GI50 (SK-OV-3) was > 100 µM (inactive). For the same compound, the GI50 (SN12C) was 46.5 µM (inactive), the GI50 (SNB-19) was > 100 µM (inactive) and the GI50 (SNB-75) was > 100 µM (inactive). For the same compound, the GI50 (SR) was 23.1 µM (inactive), the GI50 (SW-620) was 40.9 µM (inactive) and the GI50 (T47D) was 36.1 µM (inactive). For the same compound, the GI50 (TK-10) was 29.3 µM (inactive), the GI50 (U-251) was 40.4 µM (inactive) and the GI50 (UACC-257) was 80.9 µM (inactive). For the same compound, the GI50 (UACC-62) was 34.5 µM (inactive) and the GI50 (UO-31) was 65 µM (inactive).

For `O=C(c1ccccc1)C1C[C@H]2CO[C@H](c3ccccc3)N2C1=O` (stereo partly specified), the GI50 (786-0) was > 100 µM (inactive), the GI50 (A549) was > 100 µM (inactive) and the GI50 (ACHN) was > 100 µM (inactive). The GI50 (BT-549) was > 100 µM (inactive), the GI50 (CAKI-1) was > 100 µM (inactive) and the GI50 (CCRF-CEM) was 99.3 µM (inactive). For the same compound, the GI50 (COLO 205) was > 100 µM (inactive), the GI50 (DU-145) was > 100 µM (inactive) and the GI50 (EKVX) was > 100 µM (inactive). The GI50 (HCC 2998) was > 100 µM (inactive), the GI50 (HCT-116) was > 100 µM (inactive) and the GI50 (HCT-15) was greater than 100 µM. For the same compound, the GI50 (HOP-92) was > 100 µM (inactive), the GI50 (HT-29) was > 100 µM (inactive) and the GI50 (Hs-578T) was > 100 µM (inactive). The GI50 (IGROV-1) was > 100 µM (inactive), the GI50 (K562) was > 100 µM (inactive) and the GI50 (KM12) was > 100 µM (inactive). The GI50 (LOX IMVI) was > 100 µM (inactive), the GI50 (M14) was > 100 µM (inactive) and the GI50 (MCF7) was > 100 µM (inactive). The GI50 (MDA-MB-231) was > 100 µM (inactive), the GI50 (MDA-MB-435) was > 100 µM (inactive) and the GI50 (MDA-N) was > 100 µM (inactive). For the same compound, the GI50 (MOLT-4) was 97.9 µM (inactive), the GI50 (Malme-3M) was > 100 µM (inactive) and the GI50 (NCI-H226) was > 100 µM (inactive). For the same compound, the GI50 (NCI-H23) was > 100 µM (inactive), the GI50 (NCI-H460) was > 100 µM (inactive) and the GI50 (NCI-H522) was > 100 µM (inactive). For the same compound, the GI50 (NCI/ADR-RES) was > 100 µM (inactive), the GI50 (OVCAR-3) was > 100 µM (inactive) and the GI50 (OVCAR-4) was > 100 µM (inactive). The GI50 (OVCAR-5) was > 100 µM (inactive), the GI50 (OVCAR-8) was > 100 µM (inactive) and the GI50 (PC-3) was > 100 µM (inactive). The GI50 (RPMI-8226) was > 100 µM (inactive), the GI50 (RXF 393) was > 100 µM (inactive) and the GI50 (SF-268) was > 100 µM (inactive). The GI50 (SF-295) was > 100 µM (inactive), the GI50 (SF-539) was > 100 µM (inactive) and the GI50 (SK-MEL-28) was > 100 µM (inactive). For the same compound, the GI50 (SK-MEL-2) was > 100 µM (inactive), the GI50 (SK-MEL-5) was > 100 µM (inactive) and the GI50 (SN12C) was > 100 µM (inactive). For the same compound, the GI50 (SNB-19) was > 100 µM (inactive), the GI50 (SNB-75) was > 100 µM (inactive) and the GI50 (SR) was > 100 µM (inactive). The GI50 (SW-620) was > 100 µM (inactive), the GI50 (T47D) was > 100 µM (inactive) and the GI50 (TK-10) was > 100 µM (inactive). For the same compound, the GI50 (U-251) was > 100 µM (inactive), the GI50 (UACC-257) was > 100 µM (inactive) and the GI50 (UACC-62) was > 100 µM (inactive). The GI50 (UO-31) was > 100 µM (inactive).
